These results are taken from patent US5547972A, “Therapeutic agents useful for treating inflammatory diseases” (The Boots Company PLC, priority 1991, dated 1996).

Where a name gives a salt, the structure may show the parent alone.

One assay concerns Zymosan Stimulated Macrophaqes. Nature of the assay: Test A: Inhibition of Arachidonic Acid Release from Zymosan Stimulated Macrophages. The format is cell-based, mouse (female MF1). The conditions noted are these: Mus musculus, Macrophage, 5 h, inhibition of arachidonic acid release; six concentrations (100, 50, 20, 10, 5 and 1 μM); 5 h with zymosan; read-out: Test A IC50. As to the method: Inhibition of Arachidonic Acid Release from Zymosan Stimulated Macrophaqes
Female MF1 mice (weighing 20 to 25 g) were killed using a rising concentration of CO2. The mice were laid on their backs and the abdomens wiped with 70% alcohol. The skin was pulled back, exposing the peritoneal wall. Medium A (5 ml) (see below) was injected into the peritoneal cavity of each mouse followed by approximately 1 ml of air using a 20 ml syringe and a 21 G×40 mm needle in order to form a suspension of macrophage cells. The medium and cells were then removed using a 19 G×40 mm needle. The resulting suspension was returned to a sterile beaker kept on ice. The extracts from all the mice were pooled and this pooled cell suspension was counted using a Coulter counter and adjusted to a final cell count of 1-1.3×10^6 cells/ml prior to labelling with [^3 H]-arachidonic acid. Typically five mice provided sufficient cells for each multiwell plate.
Sufficient [^3 H]-arachidonic acid in ethanol to give a final concentration of 1.6 μCi/ml (equivalent to 40 μCi/plate) was blown to dryness under nitrogen. The arachidonic acid was then resuspended in 1 or 2 ml of the cell suspension which was then mixed with the remainder of the cell suspension in a centrifuge bottle. The labelled cell suspension was then plated out into sterile plastic 96 flat-bottomed well plates (250 μl per well) and incubated overnight at 37° C. in a moist atmosphere of 5% CO2, 95% air.
The following day, non-adherent cells were removed by washing 3 times with sterile phosphate buffered saline (PBS). The adherent peritoneal macrophages were then cultured for a further 24 hours in the presence or absence of drugs, in medium B (see below) at 37° in a 5% CO2 atmosphere in order to measure the effects of drugs on the spontaneous release of arachidonic acid in the absence of stimulus. After this incubation, supernatants were removed to give media 1 and stored in sealed multi-well plates at 4° C. prior to scintillation counting. Drugs which potentiated spontaneous release of arachidonic acid (125% of controls) were deemed to be toxic at the concentration at which this phenomenon occurred. The supernatants were replaced by fresh medium C containing fresh drug and a stimulus. Three drugs were tested at six concentrations (100, 50, 20, 10, 5 and 1 μM) in replicates of four on each plate. The other wells contained controls consisting of a positive control (e.g. dexamethasone), medium (B) only and medium C only.
Incubation was then continued for a further 5 hours, whereupon the supernatants were collected to give media 2 and the adherent cells washed with PBS. The cells were then lysed with 100 μl of 0.1% TRITON® X100 in a 0.1% solution of bovine serum albumin in 0.9% saline and mechanically disrupted to give cell lysates. These supernatants (media 2) and cell lysates (Cells) were also stored in sealed multi-well plates at 4° C. prior to scintillation counting. 200 μl aliquots of media, or 100 μl aliquots of cells were counted using 2 ml of OPTIPHASE "HIGH SAFE" (Trademark of LKB) as scintillant.
The percentage of arachidonic acid released was calculated using the mean values for each group of 4 wells in the following equation. [formula] cpm=courts per minute
The value for the arachidonic acid release in the absence of stimulus (spontaneous, cpm of media 2) from cells which had been exposed to neither stimulus nor drug was subtracted from all equivalent values (cpm media 2, stimulated with or without drug) to give the net stimulated release. The percentage inhibition of arachidonic acid release caused by a drug may then be calculated using the following equation. [formula]
Compounds of formula I were tested at six concentrations (100, 50, 20, 10, 5 and 1 μM) and IC50 values calculated. Compounds with IC50 values<100 μM are considered to be active. Advantageous compounds have an IC50 value <50 μM.
Medium A (for peritoneal lavage) […]
The term IC50 denotes the concentration that gives 50% inhibition. Take `CC(NCCCn1ccnc1)c1ccc(N(C)C)cc1` (stereo not drawn) [Example 6, N-[1-(4-Dimethylaminophenyl)ethyl]-3-(imidazol-1-yl)-propylamine]: the IC50 came to 92 µM.
The same measure, in the same setting: for `Brc1ccc(CNCCCn2ccnc2)cc1` [Example 36, N-(4-Bromobenzyl)-3-(imidazol-1-yl)propylamine] the value was 90 µM; for `CC(C)(NCCCCCCCCn1ccnc1)c1ccc(Cl)cc1` [Example 63, N-[1-(4-chlorophenyl)-1-methylethyl]-8-(imidazol-1-yl)octylamine], 7 µM; for `Cc1cc(C(C)NCCCn2ccnc2)ccc1Cl` (stereo not drawn) [Example 12, N-[1-(4-Chloro-3-methylphenyl)ethyl]-3-(imidazol-1-yl)propylamine], 36 µM.
Turning to `CC(C)(NCCCn1ccnc1)c1ccc(OCc2ccccc2)cc1` [Example 87, N-[1-(4-Benzyloxyphenyl)-1-methylethyl]-3-(imidazol-1-yl)propylaminedihydrochloride], the half-inhibitory concentration (IC50) amounted to 12 µM.
With `CC(NCCCn1ccnc1)c1ccc(F)cc1` (stereo not drawn) [Example 4, N-[1-(4-Fluorophenyl)ethyl]-3-(imidazol-1-yl)propylamine], the IC50 turned out to be 95 µM.
On the same count and under the same terms, the same measure for `CC(NCCCn1ccnc1)c1ccc(OC(F)(F)F)cc1` (stereo not drawn) [Example 23, 3-(Imidazol-1-yl)-N-[1-(4-trifluoromethoxyphenyl)ethyl]propylamine sesquicitrate]: 22 µM; for `CC(C)(NCCCn1cnc(CO)c1)c1ccc(Cl)cc1` [Example 79, 1-{3-[1-(4-Chlorophenyl)-1-methylethylamino]propyl}imidazol-4-yl-methanol]: 85 µM; for `CCCOC(=O)c1ccc(CNCCCn2ccnc2C)cc1` [Example 94, propyl 4-[3-(2-methylimidazol-1-yl)propylaminomethyl]benzoate]: 20 µM.
For `CCC(CC)(NCCCn1cnc(CO)c1)c1ccccc1` [Example 86, 1-[3-(1-ethyl-1-phenylpropylamino)propyl]imidazol-4-yl-methanol], the IC50 came to 78 µM.
Still for that read-out and setting: the same measure for `CCOc1cc(Cl)ccc1C(C)NCCCn1ccnc1` (stereo not drawn) [Example 18, N-[1-(4-Chloro-2-ethoxyphenyl)ethyl]-3-(imidazol-1-yl)propylamine]: 50 µM; for `FC(F)(F)Oc1ccc(CNCCCn2ccnc2)cc1` [Example 38, 3-(Imidazol-1-yl)-N-(4-trifluoromethoxybenzyl)propylamine dihydrochloride]: 80 µM; for `CC(C)(CNCc1ccc(Cl)cc1)Cn1ccnc1` [Example 61, N-(4-chlorobenzyl)-3-(imidazol-1-yl)-2,2-dimethylpropylamine]: 70 µM.
As for `CC(NCCCn1ccnc1)c1cc(Cl)ccc1Cl` (stereo not drawn) [Example 15, N-[1-(2,5-Dichlorophenyl)ethyl]-3-(imidazol-1-yl)propylamine], the 50% inhibitory concentration (IC50) was determined as 72 µM.
In the case of `CC(C)(NCCCn1ccnc1)c1ccc(-c2ccccc2)cc1` [Example 81, N-[1-(4-Biphenylyl)-1-methylethyl]-3-(imidazol-1-yl)propylamine dihydrochloride], the IC50 turned out to be 14 µM.
For `FC(F)(F)c1ccc(CNCCCn2ccnc2)cc1` [Example 37, 3-(Imidazol-1-yl)-N-(4-trifluoromethylbenzyl)propylamine dihydrochloride], the IC50 stood at 75 µM.
For the compound `CCC(CC)(NCCCn1cnc(COC(C)=O)c1)c1ccccc1` [Example 103, 1-[3-(α,α-diethylbenzylamino)propyl]imidazol-4-ylmethyl acetate], the 50% inhibitory concentration (IC50) was found to be 51 µM.
Consider `CC(NCCCn1ccnc1)c1ccc(Cl)c(Cl)c1` (stereo not drawn) [Example 3, N-[1-(3,4-Dichlorophenyl)ethyl]-3-(imidazol-1-yl)propylamine], for which the IC50 turned out to be 60 µM.
Regarding `CCOC(=O)c1ccc(C(C)NCCCn2ccnc2)cc1` (stereo not drawn) [Example 20, Ethyl 4-{1-[3-(imidazol-1-yl)propylamino]ethyl}benzoate], the concentration for half-maximal inhibition (IC50) amounted to 70 µM.
`Cc1cn(CCCNCc2ccc(Cl)cc2)c(-c2ccccc2)n1` [Example 48, N-(4-chlorobenzyl)-3-(4-methyl-2-phenylimidazol-1-yl)propylamine]: the IC50 was 15 µM.
On the same count and under the same terms, for `Cc1nccn1CCCN(C)Cc1ccc(Cl)cc1` [Example 97, N-(4-chlorobenzyl)-N-methyl-3-(2-methylimidazol-1-yl)propylamine] the value was 60 µM; for `CCc1ccc(C(C)NCCCn2ccnc2)cc1` (stereo not drawn) [Example 21, N-[1-(4-Ethylphenyl)ethyl]-3-(imidazol-1-yl)propylamine hemioxalate], 65 µM.
With `COc1cc(Cl)ccc1C(C)NCCCn1ccnc1` (stereo not drawn) [Example 17, N-[1-(4-Chloro-2-methoxyphenyl)ethyl]-3-(imidazol-1-yl)propylamine], the IC50 stood at 90 µM.
On the same count and under the same terms, the same measure for `CC(c1ccc(Cl)cc1)N(C)CCCn1ccnc1` (stereo not drawn) [Example 90, N-[1-(4-chlorophenyl)ethyl]-3-(imidazol-1-yl)-N-methylpropylamine]: 62 µM; for `CC(C)(NCCCn1ccnc1)c1ccc2ccccc2c1` [Example 83, N-[1-(2-Naphthyl)-1-methylethyl]-3-(imidazol-1-yl)propylamine dihydrochloride hemihydrate]: 28 µM.
As for `Cc1cn(CCCNCc2ccc(Cl)cc2)c(C)n1` [Example 42, N-(4-chlorobenzyl)-3-(2,4-dimethylimidazol-1-yl)propylamine dihydrochloride], the IC50 worked out at 8 µM.
With `Clc1ccc(CNCCCCn2ccnc2)cc1` [Example 46, N-(4-Chlorobenzyl)-4-(imidazol-1-yl)butylamine dihydrochloride], the IC50 amounted to 86 µM.
With `CC(C)(NCCCn1cnc([N+](=O)[O-])c1)c1ccc(Cl)cc1` [Example 74, N-[1-(4-Chlorophenyl)-1-methylethyl]-3-(4-nitroimidazol-1-yl)propylamine], the 50% inhibitory concentration (IC50) was 70 µM.
With `CN(CCCn1ccnc1)C(C)(C)c1ccc(Cl)cc1` [Example 96, N-[1-(4-chlorophenyl)-1-methylethyl]-3-(imidazol-1-yl)-N-methylpropylamine], the IC50 is 75 µM.
With `Cc1nccn1CCCCCNCc1ccc(Cl)cc1` [Example 95, N-(4-chlorobenzyl)-5-(2-methylimidazol-1-yl)pentylamine], the IC50 stood at 4 µM.

Still in this assay, the particulars now being: inhibition of arachidonic acid release; six concentrations (100, 50, 20, 10, 5 and 1 μM); 5 h with zymosan; citrate; read-out: Test A IC50.
Turning to `CC(C)(NCCCn1ccnc1)c1ccc(Cl)cc1` [Example 99, N-[1-(4-chlorophenyl)-1-methylethyl]-3-(imidazol-1-yl)propylamine citrate], the IC50 was found to be 14 µM.

Staying with this assay, now noted: inhibition of arachidonic acid release; six concentrations (100, 50, 20, 10, 5 and 1 μM); 5 h with zymosan; dihydrate; read-out: Test A IC50.
On to `CC(C)(NCCCn1ccnc1)c1ccc(Cl)cc1` [Example 100, N-[1-(4-chlorophenyl)-1-methylethyl]-3-(imidazol-1-yl)propylamine (+)tartrate dihydrate], for which the IC50 came to 20 µM.

Still in this assay, the particulars now being: inhibition of arachidonic acid release; six concentrations (100, 50, 20, 10, 5 and 1 μM); 5 h with zymosan; read-out: Test A IC50.
With “A mixture of N-[1-(4-chlorophenyl)-1-methylethyl]-3-(4-methylimidazol-1-yl)propylamine and N-[1-(4-chlorophenyl)-1-methylethyl]-3-(5-methylimidazol-1-yl)propylamine [Example 69]”, the half-maximal inhibitory concentration (IC50) was 11 µM.
